Assay results: ChEMBL document CHEMBL3611985, “Synthesis and structure-activity relationships of novel 9-oxime acylides with improved bactericidal activity” (2015)
Converted amounts (≈) assume the structure as drawn.

Key:
Format in all cases: functional
Streptococcus pneumoniae [1] = assay: Antimicrobial activity against erythromycin-susceptible Streptococcus pneumoniae ATCC 49619 incubated for 20 to 24 hrs by two-fold microbroth dilution method
Staphylococcus aureus [2] = assay: Antimicrobial activity against methicillin-resistant Staphylococcus aureus PU20 expressing constitutive ermC incubated for 20 hrs by two-fold microbroth dilution method; conditions: PU20, 20 h
Staphylococcus aureus [3] = assay: Bactericidal activity against methicillin-resistant Staphylococcus aureus PU32 expressing inducible ermA incubated for 20 hrs followed by sub-culturing for 24 hrs in absence of compound
Streptococcus pyogenes [4] = assay: Bactericidal activity against Streptococcus pyogenes 12-207 expressing mef incubated for 20 to 24 hrs followed by sub-culturing for 24 hrs in absence of compound
Streptococcus pyogenes [5] = assay: Ratio of MBC to MIC against Streptococcus pyogenes 12-207 expressing mef
Staphylococcus aureus [6] = assay: Antimicrobial activity against methicillin-resistant Staphylococcus aureus PU32 expressing inducible ermA incubated for 20 hrs by two-fold microbroth dilution method; conditions: PU32, 20 h
Moraxella catarrhalis [7] = assay: Antimicrobial activity against erythromycin-susceptible Moraxella catarrhalis 11B366 incubated for 20 hrs by two-fold microbroth dilution method; conditions: 11B366, 20 h
Streptococcus pneumoniae [8] = assay: Bactericidal activity against erythromycin-susceptible Streptococcus pneumoniae ATCC 49619 incubated for 20 to 24 hrs followed by sub-culturing for 24 hrs in absence of compound
Streptococcus pyogenes [9] = assay: Ratio of MBC to MIC against Streptococcus pyogenes 01-968 expressing inducible ermA
Streptococcus pneumoniae [10] = assay: Bactericidal activity against penicillin-susceptible Streptococcus pneumoniae PU09 incubated for 20 to 24 hrs followed by sub-culturing for 24 hrs in absence of compound
Moraxella catarrhalis [11] = assay: Ratio of MBC to MIC against erythromycin-susceptible Moraxella catarrhalis 11B366
Streptococcus pneumoniae [12] = assay: Ratio of MBC to MIC against erythromycin-susceptible Streptococcus pneumoniae ATCC 49619
Streptococcus pyogenes [13] = assay: Antimicrobial activity against Streptococcus pyogenes 12-207 expressing mef incubated for 20 to 24 hrs by two-fold microbroth dilution method
Staphylococcus aureus [14] = assay: Bactericidal activity against methicillin-resistant Staphylococcus aureus PU20 expressing constitutive ermC incubated for 20 hrs followed by sub-culturing for 24 hrs in absence of compound
Staphylococcus aureus [15] = assay: Ratio of MBC to MIC against methicillin-resistant Staphylococcus aureus PU32 expressing inducible ermA
Streptococcus pyogenes [16] = assay: Antimicrobial activity against Streptococcus pyogenes 01-968 expressing inducible ermA incubated for 20 to 24 hrs by two-fold microbroth dilution method
Streptococcus pyogenes [17] = assay: Bactericidal activity against Streptococcus pyogenes 01-968 expressing inducible ermA incubated for 20 to 24 hrs followed by sub-culturing for 24 hrs in absence of compound
Staphylococcus aureus [18] = assay: Ratio of MBC to MIC against methicillin-resistant Staphylococcus aureus PU20 expressing constitutive ermC
Streptococcus pneumoniae [19] = assay: Antimicrobial activity against penicillin-susceptible Streptococcus pneumoniae PU09 incubated for 20 to 24 hrs by two-fold microbroth dilution method
Streptococcus pneumoniae [20] = assay: Ratio of MBC to MIC against penicillin-susceptible Streptococcus pneumoniae PU09
Haemophilus influenzae = assay: Antimicrobial activity against azithromycin-susceptible and ampicillin-resistant Haemophilus influenzae 11P037 incubated for 20 to 24 hrs by two-fold microbroth dilution method
Moraxella catarrhalis [21] = assay: Bactericidal activity against erythromycin-susceptible Moraxella catarrhalis 11B366 incubated for 20 hrs followed by sub-culturing for 24 hrs in absence of compound
Streptococcus pneumoniae [22] = assay: Antimicrobial activity against Streptococcus pneumoniae 07P390 expressing constitutive ermB incubated for 20 to 24 hrs by two-fold microbroth dilution method

CC[C@H]1OC(=O)[C@H](C)[C@@H](OC(=O)Cc2ccccn2)[C@H](C)[C@@H](O[C@@H]2O[C@H](C)C[C@H](N(C)C)[C@H]2O)[C@](C)(OC)C[C@@H](C)/C(=N\OCC#Cc2ccc(-n3ccnc3)cc2)[C@H](C)[C@H]2OC(=O)O[C@@]21C
MIC (Streptococcus pneumoniae [1]): 0.125 µg/mL (≈ 0.134 µM)
MIC (Staphylococcus aureus [2]): 32 µg/mL (≈ 34.4 µM)
MBC (Staphylococcus aureus [3]): > 16 µg/mL
MBC (Streptococcus pyogenes [4]): 8 µg/mL (≈ 8.6 µM)
Ratio (Streptococcus pyogenes [5]): 8
MIC (Staphylococcus aureus [6]): 2 µg/mL (≈ 2.15 µM)
MIC (Moraxella catarrhalis [7]): 4 µg/mL (≈ 4.3 µM)
MBC (Streptococcus pneumoniae [8]): 0.25 µg/mL (≈ 0.269 µM)
Ratio (Streptococcus pyogenes [9]): >8
MBC (Streptococcus pneumoniae [10]): 4 µg/mL (≈ 4.3 µM)
Ratio (Moraxella catarrhalis [11]): 2
Ratio (Streptococcus pneumoniae [12]): 2
MIC (Streptococcus pyogenes [13]): 1 µg/mL (≈ 1.08 µM)
MBC (Staphylococcus aureus [14]): 64 µg/mL (≈ 68.8 µM)
Ratio (Staphylococcus aureus [15]): >8
MIC (Streptococcus pyogenes [16]): 0.062 µg/mL (≈ 0.0667 µM)
MBC (Streptococcus pyogenes [17]): > 0.5 µg/mL
Ratio (Staphylococcus aureus [18]): 2
MIC (Streptococcus pneumoniae [19]): 2 µg/mL (≈ 2.15 µM)
Ratio (Streptococcus pneumoniae [20]): 2
MIC (Haemophilus influenzae): > 256 µg/mL
MBC (Moraxella catarrhalis [21]): 8 µg/mL (≈ 8.6 µM)

CC[C@H]1OC(=O)[C@H](C)[C@@H](OC(=O)Cc2ccccn2)[C@H](C)[C@@H](O[C@@H]2O[C@H](C)C[C@H](N(C)C)[C@H]2O)[C@](C)(OC)C[C@@H](C)/C(=N\OC/C=C/c2ccc(NC(=O)Cc3ccccn3)nc2)[C@H](C)[C@H]2OC(=O)O[C@@]21C
MIC (Streptococcus pneumoniae [1]): 0.125 µg/mL (≈ 0.125 µM)
MIC (Staphylococcus aureus [2]): > 64 µg/mL
MIC (Staphylococcus aureus [6]): 4 µg/mL (≈ 4 µM)
MIC (Streptococcus pneumoniae [22]): 2 µg/mL (≈ 2 µM)
MIC (Streptococcus pyogenes [16]): 8 µg/mL (≈ 7.99 µM)
MIC (Streptococcus pneumoniae [19]): 2 µg/mL (≈ 2 µM)
MIC (Haemophilus influenzae): > 64 µg/mL

CC[C@H]1OC(=O)[C@H](C)[C@@H](OC(=O)Cc2ccccn2)[C@H](C)[C@@H](O[C@@H]2O[C@H](C)C[C@H](N(C)C)[C@H]2O)[C@](C)(OC)C[C@@H](C)/C(=N\OCC#Cc2cncc(NC(=O)Cc3ccccn3)c2)[C@H](C)[C@H]2OC(=O)O[C@@]21C
MIC (Streptococcus pneumoniae [1]): 0.031 µg/mL (≈ 0.031 µM)
MIC (Staphylococcus aureus [2]): > 64 µg/mL
MIC (Staphylococcus aureus [6]): 2 µg/mL (≈ 2 µM)
MIC (Streptococcus pneumoniae [22]): 1 µg/mL (≈ 1 µM)
MIC (Streptococcus pyogenes [16]): 4 µg/mL (≈ 4 µM)
MIC (Streptococcus pneumoniae [19]): 2 µg/mL (≈ 2 µM)
MIC (Haemophilus influenzae): > 64 µg/mL

CC[C@H]1OC(=O)[C@H](C)[C@@H](OC(=O)Cc2ccccn2)[C@H](C)[C@@H](O[C@@H]2O[C@H](C)C[C@H](N(C)C)[C@H]2O)[C@](C)(OC)C[C@@H](C)/C(=N\OC/C=C/c2ccnc(NC(=O)Cc3ccccn3)c2)[C@H](C)[C@H]2OC(=O)O[C@@]21C
MIC (Streptococcus pneumoniae [1]): 0.125 µg/mL (≈ 0.125 µM)
MIC (Staphylococcus aureus [2]): > 64 µg/mL
MIC (Staphylococcus aureus [6]): 4 µg/mL (≈ 4 µM)
MIC (Streptococcus pneumoniae [22]): 4 µg/mL (≈ 4 µM)
MIC (Streptococcus pyogenes [16]): 4 µg/mL (≈ 4 µM)
MIC (Streptococcus pneumoniae [19]): 4 µg/mL (≈ 4 µM)
MIC (Haemophilus influenzae): > 64 µg/mL

CC[C@H]1OC(=O)[C@H](C)[C@@H](OC(=O)Cc2ccccn2)[C@H](C)[C@@H](O[C@@H]2O[C@H](C)C[C@H](N(C)C)[C@H]2O)[C@](C)(OC)C[C@@H](C)/C(=N\OC/C=C/c2cncc(NC(=O)Cc3ccccn3)c2)[C@H](C)[C@H]2OC(=O)O[C@@]21C
MIC (Streptococcus pneumoniae [1]): 0.062 µg/mL (≈ 0.0619 µM)
MIC (Staphylococcus aureus [2]): > 64 µg/mL
MIC (Staphylococcus aureus [6]): 2 µg/mL (≈ 2 µM)
MIC (Streptococcus pneumoniae [22]): 2 µg/mL (≈ 2 µM)
MIC (Streptococcus pyogenes [16]): 4 µg/mL (≈ 4 µM)
MIC (Streptococcus pneumoniae [19]): 2 µg/mL (≈ 2 µM)
MIC (Haemophilus influenzae): > 64 µg/mL

CC[C@H]1OC(=O)[C@H](C)[C@@H](OC(=O)Cc2ccccn2)[C@H](C)[C@@H](O[C@@H]2O[C@H](C)C[C@H](N(C)C)[C@H]2O)[C@](C)(OC)C[C@@H](C)/C(=N\OCC#Cc2cccc(NC(=O)Cc3ccccn3)n2)[C@H](C)[C@H]2OC(=O)O[C@@]21C
MIC (Streptococcus pneumoniae [1]): 0.125 µg/mL (≈ 0.125 µM)
MIC (Staphylococcus aureus [2]): > 64 µg/mL
MIC (Staphylococcus aureus [6]): 2 µg/mL (≈ 2 µM)
MIC (Streptococcus pneumoniae [22]): 1 µg/mL (≈ 1 µM)
MIC (Streptococcus pyogenes [16]): 4 µg/mL (≈ 4 µM)
MIC (Streptococcus pneumoniae [19]): 2 µg/mL (≈ 2 µM)
MIC (Haemophilus influenzae): > 64 µg/mL

CC[C@H]1OC(=O)[C@H](C)[C@@H](OC(=O)Cc2ccccn2)[C@H](C)[C@@H](O[C@@H]2O[C@H](C)C[C@H](N(C)C)[C@H]2O)[C@](C)(OC)C[C@@H](C)/C(=N\OCC#Cc2ccc(N)nc2)[C@H](C)[C@H]2OC(=O)O[C@@]21C
MIC (Streptococcus pneumoniae [1]): 0.008 µg/mL (≈ 0.00909 µM)
MIC (Staphylococcus aureus [2]): > 64 µg/mL
MIC (Staphylococcus aureus [6]): 0.5 µg/mL (≈ 0.568 µM)
MIC (Streptococcus pneumoniae [22]): 2 µg/mL (≈ 2.27 µM)
MIC (Streptococcus pyogenes [16]): 1 µg/mL (≈ 1.14 µM)
MIC (Streptococcus pneumoniae [19]): 0.5 µg/mL (≈ 0.568 µM)
MIC (Haemophilus influenzae): 32 µg/mL (≈ 36.4 µM)

CC[C@H]1OC(=O)[C@H](C)[C@@H](OC(=O)Cc2ccccn2)[C@H](C)[C@@H](O[C@@H]2O[C@H](C)C[C@H](N(C)C)[C@H]2O)[C@](C)(OC)C[C@@H](C)/C(=N\OC/C=C/c2cccnc2N)[C@H](C)[C@H]2OC(=O)O[C@@]21C
MIC (Streptococcus pneumoniae [1]): 0.062 µg/mL (≈ 0.0703 µM)
MIC (Staphylococcus aureus [2]): > 64 µg/mL
MIC (Staphylococcus aureus [6]): 1 µg/mL (≈ 1.13 µM)
MIC (Streptococcus pneumoniae [22]): 4 µg/mL (≈ 4.53 µM)
MIC (Streptococcus pyogenes [16]): 2 µg/mL (≈ 2.27 µM)
MIC (Streptococcus pneumoniae [19]): 1 µg/mL (≈ 1.13 µM)
MIC (Haemophilus influenzae): 32 µg/mL (≈ 36.3 µM)
